Data reported in patent US7074789B2, “Kinase inhibitors” (Amgen Inc., priority 1999, dated 2006).
pIC50: −log10 of the molar value.

Assays:
Assay type in all cases: biochemical
AKT = target: T1, AKT (Homo sapiens, UniProt Q9Y243); experiment: Kinase inhibition assay (33P transfer), AKT; settings: Table 2, kinase inhibition class; read-out: AKT3-1
T1 construct: Kinases are expressed as either kinase domains or full length constructs; made in house
Method in brief: (§1)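 GST/His-tagged kinase (domain or full length; E. coli or baculovirus) + [33P]ATP on plates coated with poly(Glu,Tyr) 4:1 or poly(Arg,Ser) 3:1; incubate, wash 0.5% H3PO4, add scintillant, count.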

ErbB2 = target: T2, ErbB2 (Homo sapiens, UniProt P04626); experiment: Kinase inhibition assay (33P transfer), ErbB2; settings: read-out: ErbB2-2
T2 construct: Kinases are expressed as either kinase domains or full length constructs; made in house
Description: The inhibitor compounds described herein are screened in the following manner. Kinases suitable for use in the following protocol to determine kinase activity of the compounds described herein include, -but are not limited to: Lck, Lyn, Src, Fyn, Syk, Zap-70, Itk, Tec, Btk, EGFR, ErbB2, Kdr, Flt-1, Flt-3, Tek, c-Met, InsR, and AKT.
Kinases are expressed as either kinase domains or full length constructs fused to glutathione S-transferase (GST) or polyHistidine tagged fusion proteins in either E. colior Baculovirus-High Five expression systems. They are purified to near homogeneity by affinity chromatography essentially as previously described (Lehr et al., 1996; Gish et al., 1995). In some instances, kinases are co-expressed or mixed with purified or partially purified regulatory polypeptides prior to measurement of activity.
Kinase activity and inhibition are measured essentially by established protocols (Braunwalder et al., 1996). Briefly, The transfer of ^33PO4 from ATP to the synthetic substrates poly(Glu, Tyr) 4:1 or poly(Arg, Ser) 3:1 attached to the bioactive surface of microtiter plates serves as the basis to evaluate enzyme activity. After an incubation period, the amount of phosphate transferred is measured by first washing the plate with 0.5% phosphoric acid, adding liquid scintillant, and then counting in a liquid scintillation detector. The IC50 is determined by the concentration of compound that causes a 50% reduction in the amount of […] incorporated onto the substrate bound to the plate.

PDGFRB = target: T3, PDGFRB (Homo sapiens, UniProt P09619); experiment: Kinase inhibition assay (33P transfer), PDGFRB; settings: read-out: PDGFRB-1
T3 construct: Kinases are expressed as either kinase domains or full length constructs; made in house

Zap-70 = target: T4, Zap-70 (Homo sapiens, UniProt P43403); experiment: Kinase inhibition assay (33P transfer), Zap-70; settings: read-out: Zap-1
T4 construct: Kinases are expressed as either kinase domains or full length constructs; made in house
T4 sequence (P43403 1-619): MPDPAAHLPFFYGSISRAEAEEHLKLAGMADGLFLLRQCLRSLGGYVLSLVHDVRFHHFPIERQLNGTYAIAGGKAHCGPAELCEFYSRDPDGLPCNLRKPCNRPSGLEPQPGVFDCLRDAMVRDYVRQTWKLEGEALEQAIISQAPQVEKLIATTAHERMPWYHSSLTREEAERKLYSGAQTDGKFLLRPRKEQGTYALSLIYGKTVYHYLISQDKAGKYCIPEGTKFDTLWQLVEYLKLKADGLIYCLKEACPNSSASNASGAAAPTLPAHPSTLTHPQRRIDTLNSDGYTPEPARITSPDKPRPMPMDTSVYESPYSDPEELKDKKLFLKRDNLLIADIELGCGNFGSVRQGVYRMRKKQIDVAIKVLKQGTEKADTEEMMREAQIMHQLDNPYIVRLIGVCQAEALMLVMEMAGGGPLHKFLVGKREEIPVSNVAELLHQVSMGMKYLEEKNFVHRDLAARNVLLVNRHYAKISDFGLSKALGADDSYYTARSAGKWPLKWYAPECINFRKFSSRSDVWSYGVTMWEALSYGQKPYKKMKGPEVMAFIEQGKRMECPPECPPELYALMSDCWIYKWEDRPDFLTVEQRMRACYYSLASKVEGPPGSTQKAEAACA
Method in brief: as §1

EGFR = target: T5, EGFR (Homo sapiens, UniProt P00533); experiment: Kinase inhibition assay (33P transfer), EGFR; settings: Table 2, kinase inhibition class; read-out: EGFR-1
T5 construct: Kinases are expressed as either kinase domains or full length constructs; made in house
Method in brief: (§2)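 Kinase domains or full-length enzymes, GST- or polyHis-tagged, were expressed in E. coli or baculovirus High Five cells and affinity-purified. Transfer of 33PO4 from ATP onto plate-bound poly(Glu,Tyr) 4:1 or poly(Arg,Ser) 3:1 was counted by liquid scintillation after a 0.5% phosphoric acid wash. IC50 = concentration halving incorporation.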

Kdr = target: T6, Kdr (Homo sapiens, UniProt P35968); experiment: Kinase inhibition assay (33P transfer), Kdr; settings: read-out: KDR-1
T6 construct: Kinases are expressed as either kinase domains or full length constructs; made in house
Method in brief: as §1

Itk = target: T7, Itk (Homo sapiens, UniProt Q08881); experiment: Kinase inhibition assay (33P transfer), Itk; settings: read-out: Itk-1
T7 construct: Kinases are expressed as either kinase domains or full length constructs; made in house
T7 sequence (Q08881 1-620): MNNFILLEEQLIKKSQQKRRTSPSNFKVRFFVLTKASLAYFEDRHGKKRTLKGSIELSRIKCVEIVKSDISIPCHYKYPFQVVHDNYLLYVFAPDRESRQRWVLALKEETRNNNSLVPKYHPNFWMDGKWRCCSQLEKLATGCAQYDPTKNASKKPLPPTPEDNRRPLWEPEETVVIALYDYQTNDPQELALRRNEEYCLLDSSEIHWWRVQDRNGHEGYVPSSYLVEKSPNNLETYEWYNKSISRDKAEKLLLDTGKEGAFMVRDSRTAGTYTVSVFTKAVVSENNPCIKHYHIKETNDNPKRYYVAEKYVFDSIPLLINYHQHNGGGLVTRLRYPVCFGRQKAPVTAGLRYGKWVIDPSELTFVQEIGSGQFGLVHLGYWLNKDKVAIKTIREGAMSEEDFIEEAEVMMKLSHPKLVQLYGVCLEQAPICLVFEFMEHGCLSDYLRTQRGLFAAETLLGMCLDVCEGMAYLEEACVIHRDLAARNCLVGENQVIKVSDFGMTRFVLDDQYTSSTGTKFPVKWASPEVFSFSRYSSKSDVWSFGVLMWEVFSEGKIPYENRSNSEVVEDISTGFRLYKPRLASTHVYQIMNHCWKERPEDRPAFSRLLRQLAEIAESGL
Method in brief: as §2

IGFR-1 = target: T8, IGFR-1 (Homo sapiens, UniProt P08069); experiment: Kinase inhibition assay, IGFR-1 (Table 2); settings: Table 2, kinase inhibition class
T8 construct: Kinases are expressed as either kinase domains or full length constructs; made in house

c-Met = target: T9, c-Met (Homo sapiens, UniProt P08581); experiment: Kinase inhibition assay (33P transfer), c-Met; settings: Table 2, kinase inhibition class; read-out: Met-1
T9 construct: Kinases are expressed as either kinase domains or full length constructs; made in house
Method in brief: as §2

Lck = target: T10, Lck (Homo sapiens, UniProt P06239); experiment: Kinase inhibition assay (33P transfer), Lck; settings: read-out: Lck-1
T10 construct: Kinases are expressed as either kinase domains or full length constructs; made in house
Method in brief: as §1

Tek = target: T11, Tek (Homo sapiens, UniProt Q02763); experiment: Kinase inhibition assay (33P transfer), Tek; settings: read-out: Tek-1
T11 construct: Kinases are expressed as either kinase domains or full length constructs; made in house
Method in brief: as §2

T1 sequence (Q9Y243 whole entry, the tested form may be a part): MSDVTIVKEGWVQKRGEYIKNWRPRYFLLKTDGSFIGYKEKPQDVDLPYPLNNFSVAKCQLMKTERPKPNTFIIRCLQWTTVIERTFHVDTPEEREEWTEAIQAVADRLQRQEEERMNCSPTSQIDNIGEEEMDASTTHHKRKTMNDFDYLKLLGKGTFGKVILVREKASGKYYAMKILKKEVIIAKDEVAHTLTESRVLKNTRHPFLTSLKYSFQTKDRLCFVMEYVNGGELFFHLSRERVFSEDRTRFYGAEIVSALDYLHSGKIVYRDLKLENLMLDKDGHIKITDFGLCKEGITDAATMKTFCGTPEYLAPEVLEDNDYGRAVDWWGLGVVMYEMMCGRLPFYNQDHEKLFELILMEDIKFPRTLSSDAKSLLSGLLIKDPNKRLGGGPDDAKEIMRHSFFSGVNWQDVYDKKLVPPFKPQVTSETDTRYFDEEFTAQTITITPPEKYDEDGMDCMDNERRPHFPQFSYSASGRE
T2 sequence (P04626 23-1255, species assumed): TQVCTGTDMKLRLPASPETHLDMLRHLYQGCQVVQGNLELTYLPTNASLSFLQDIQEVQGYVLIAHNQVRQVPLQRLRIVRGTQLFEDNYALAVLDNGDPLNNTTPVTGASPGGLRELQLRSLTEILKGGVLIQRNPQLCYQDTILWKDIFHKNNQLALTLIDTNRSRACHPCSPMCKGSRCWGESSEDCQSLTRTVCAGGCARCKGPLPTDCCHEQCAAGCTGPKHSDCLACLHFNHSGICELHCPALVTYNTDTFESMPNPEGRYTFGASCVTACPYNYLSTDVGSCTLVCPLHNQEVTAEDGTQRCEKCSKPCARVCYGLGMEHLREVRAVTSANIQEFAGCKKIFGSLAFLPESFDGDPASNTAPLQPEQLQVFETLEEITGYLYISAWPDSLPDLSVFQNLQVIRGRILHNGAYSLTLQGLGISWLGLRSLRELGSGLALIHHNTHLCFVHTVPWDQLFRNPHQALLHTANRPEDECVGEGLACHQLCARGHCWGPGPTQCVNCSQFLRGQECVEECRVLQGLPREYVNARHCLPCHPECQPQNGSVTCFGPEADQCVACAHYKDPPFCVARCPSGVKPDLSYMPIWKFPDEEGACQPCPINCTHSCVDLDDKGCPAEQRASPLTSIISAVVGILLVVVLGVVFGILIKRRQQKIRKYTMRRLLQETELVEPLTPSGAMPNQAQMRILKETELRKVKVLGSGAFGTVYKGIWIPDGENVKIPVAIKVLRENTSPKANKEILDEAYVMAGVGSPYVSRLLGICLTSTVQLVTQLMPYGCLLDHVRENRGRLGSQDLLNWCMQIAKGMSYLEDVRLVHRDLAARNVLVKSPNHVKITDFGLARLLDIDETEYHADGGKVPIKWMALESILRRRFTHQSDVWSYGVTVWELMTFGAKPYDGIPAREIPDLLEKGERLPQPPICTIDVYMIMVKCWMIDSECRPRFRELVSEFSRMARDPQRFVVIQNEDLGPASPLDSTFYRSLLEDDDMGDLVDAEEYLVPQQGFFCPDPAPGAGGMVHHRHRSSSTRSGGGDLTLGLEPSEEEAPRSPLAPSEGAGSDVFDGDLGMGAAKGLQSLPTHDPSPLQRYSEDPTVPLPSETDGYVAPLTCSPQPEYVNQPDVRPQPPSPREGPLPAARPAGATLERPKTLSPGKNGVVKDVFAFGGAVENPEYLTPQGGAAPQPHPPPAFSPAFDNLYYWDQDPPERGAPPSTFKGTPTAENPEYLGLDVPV
T5 sequence (P00533 25-1210, species assumed): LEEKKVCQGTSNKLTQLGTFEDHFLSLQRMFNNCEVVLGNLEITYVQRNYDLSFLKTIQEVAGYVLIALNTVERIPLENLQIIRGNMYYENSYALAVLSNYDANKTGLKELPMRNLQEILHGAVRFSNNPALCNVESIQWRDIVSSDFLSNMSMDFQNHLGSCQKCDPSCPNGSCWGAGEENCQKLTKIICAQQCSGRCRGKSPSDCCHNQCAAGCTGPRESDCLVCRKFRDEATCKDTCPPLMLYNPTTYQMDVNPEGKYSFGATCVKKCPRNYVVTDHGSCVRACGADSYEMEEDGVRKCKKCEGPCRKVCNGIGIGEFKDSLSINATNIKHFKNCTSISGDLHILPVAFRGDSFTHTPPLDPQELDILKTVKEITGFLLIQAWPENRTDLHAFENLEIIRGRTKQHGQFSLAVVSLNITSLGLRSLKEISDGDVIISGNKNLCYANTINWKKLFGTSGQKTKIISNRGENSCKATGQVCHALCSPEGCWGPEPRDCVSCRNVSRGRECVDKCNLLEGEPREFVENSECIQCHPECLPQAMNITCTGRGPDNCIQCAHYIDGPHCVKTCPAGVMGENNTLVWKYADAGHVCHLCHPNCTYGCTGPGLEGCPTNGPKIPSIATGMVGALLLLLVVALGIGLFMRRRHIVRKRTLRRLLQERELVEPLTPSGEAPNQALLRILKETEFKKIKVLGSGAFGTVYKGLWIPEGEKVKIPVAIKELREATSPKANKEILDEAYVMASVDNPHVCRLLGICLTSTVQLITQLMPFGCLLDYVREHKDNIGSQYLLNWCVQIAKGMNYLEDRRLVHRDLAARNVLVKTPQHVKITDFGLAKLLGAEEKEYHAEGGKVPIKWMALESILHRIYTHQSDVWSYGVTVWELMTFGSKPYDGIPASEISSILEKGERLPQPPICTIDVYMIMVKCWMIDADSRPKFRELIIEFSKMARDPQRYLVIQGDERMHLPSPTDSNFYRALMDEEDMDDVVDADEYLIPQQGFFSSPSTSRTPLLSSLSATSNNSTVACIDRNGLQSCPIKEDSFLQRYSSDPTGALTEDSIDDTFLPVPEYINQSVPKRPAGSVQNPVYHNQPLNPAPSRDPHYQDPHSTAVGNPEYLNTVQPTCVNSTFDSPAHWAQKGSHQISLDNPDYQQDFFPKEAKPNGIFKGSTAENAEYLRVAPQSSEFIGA
T11 sequence (Q02763 23-1124, species assumed): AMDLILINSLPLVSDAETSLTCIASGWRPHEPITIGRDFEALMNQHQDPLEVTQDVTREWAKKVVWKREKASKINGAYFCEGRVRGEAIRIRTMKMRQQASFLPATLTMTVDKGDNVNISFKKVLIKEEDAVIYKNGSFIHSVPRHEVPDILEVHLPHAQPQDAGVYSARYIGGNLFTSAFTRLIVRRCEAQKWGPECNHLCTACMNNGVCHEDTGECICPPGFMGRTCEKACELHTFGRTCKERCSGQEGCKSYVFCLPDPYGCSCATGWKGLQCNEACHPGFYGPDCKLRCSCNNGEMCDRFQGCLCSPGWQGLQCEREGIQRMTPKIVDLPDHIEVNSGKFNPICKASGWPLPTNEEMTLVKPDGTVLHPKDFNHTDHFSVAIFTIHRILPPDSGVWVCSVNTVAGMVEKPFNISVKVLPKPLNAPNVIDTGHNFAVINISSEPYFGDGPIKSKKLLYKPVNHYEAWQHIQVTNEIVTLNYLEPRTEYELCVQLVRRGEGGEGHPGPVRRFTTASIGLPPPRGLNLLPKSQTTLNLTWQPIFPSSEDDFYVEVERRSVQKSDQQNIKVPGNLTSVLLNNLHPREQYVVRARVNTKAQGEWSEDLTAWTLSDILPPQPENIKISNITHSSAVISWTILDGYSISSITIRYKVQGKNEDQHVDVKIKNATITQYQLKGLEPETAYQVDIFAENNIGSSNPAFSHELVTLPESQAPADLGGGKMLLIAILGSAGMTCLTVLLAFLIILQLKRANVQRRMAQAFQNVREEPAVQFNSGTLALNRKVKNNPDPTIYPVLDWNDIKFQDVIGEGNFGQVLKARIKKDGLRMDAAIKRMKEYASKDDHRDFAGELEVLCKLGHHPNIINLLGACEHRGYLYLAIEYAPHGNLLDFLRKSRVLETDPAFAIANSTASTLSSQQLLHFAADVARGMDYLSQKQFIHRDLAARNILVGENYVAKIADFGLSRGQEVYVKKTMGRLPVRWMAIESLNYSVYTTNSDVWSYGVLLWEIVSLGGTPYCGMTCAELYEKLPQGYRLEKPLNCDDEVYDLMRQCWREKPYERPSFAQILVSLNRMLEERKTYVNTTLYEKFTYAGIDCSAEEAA
T10 sequence (P06239 whole entry, species assumed, the tested form may be a part): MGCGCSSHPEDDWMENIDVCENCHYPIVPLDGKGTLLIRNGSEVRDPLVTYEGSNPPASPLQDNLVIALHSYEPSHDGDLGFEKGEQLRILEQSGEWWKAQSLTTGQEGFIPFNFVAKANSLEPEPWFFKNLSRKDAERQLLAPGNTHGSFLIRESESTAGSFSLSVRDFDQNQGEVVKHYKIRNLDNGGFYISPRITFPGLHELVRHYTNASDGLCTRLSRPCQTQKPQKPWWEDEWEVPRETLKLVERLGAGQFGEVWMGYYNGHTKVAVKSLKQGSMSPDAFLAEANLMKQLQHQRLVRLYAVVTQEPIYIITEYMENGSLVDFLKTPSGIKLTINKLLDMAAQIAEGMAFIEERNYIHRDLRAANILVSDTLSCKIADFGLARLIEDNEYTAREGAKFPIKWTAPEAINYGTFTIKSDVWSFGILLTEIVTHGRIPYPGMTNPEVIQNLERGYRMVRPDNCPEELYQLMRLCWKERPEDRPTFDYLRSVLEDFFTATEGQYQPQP

Row | Compound | pIC50 (AKT) | pIC50 (ErbB2) | pIC50 (PDGFRB) | pIC50 (Zap-70) | pIC50 (EGFR) | pIC50 (Kdr) | pIC50 (Itk) | pIC50 (IGFR-1) | pIC50 (c-Met) | pIC50 (Lck) | pIC50 (Tek)
1 | Cc1ccc2c(c1)CCCN2c1ncnc(Nc2cc[nH]n2)n1 [Compound 766] | < 4.83 | 5.11 to 5.89 | 5.11 to 5.89 | < 4.83 | 5.11 to 5.89 | 5.11 to 5.89 | > 5.89 | 5.11 to 5.89 | 5.11 to 5.89 | 5.11 to 5.89 | 
2 | Cc1ccc2c(c1)CCCN2c1ncnc(Nc2ccc3ncsc3c2)n1 [Compound 773] | < 4.92 | 5.19 to 5.97 | > 5.97 | < 4.92 | 5.19 to 5.97 | 5.19 to 5.97 | 5.19 to 5.97 | 5.19 to 5.97 | > 5.97 | 5.19 to 5.97 | 
3 | CN(c1cccc(Cl)c1)c1ncnc(Nc2ccc(F)c(Cl)c2)n1 [Compound 703] | < 4.91 | 4.91 to 5.02 | < 4.91 | < 4.91 | > 5.96 | < 4.91 | < 4.91 | < 4.91 | < 4.91 | < 4.91 | 
4 | COc1ccc(Nc2ncnc(Nc3cccc(-c4ccnc(C)n4)c3)n2)cc1OC [Compound 789] | < 4.97 |  | 5.07 to 5.24 | < 4.97 | < 4.97 | < 4.97 | < 4.97 | 5.24 to 6.02 | < 4.97 | 5.24 to 6.02 | 
5 | COc1cc(Nc2ncnc(Nc3cc(-c4cccc(C)c4)n[nH]3)n2)cc(OC)c1OC [Compound 1001] | < 4.98 | 5.26 to 6.03 |  | < 4.98 | 5.26 to 6.03 | 5.26 to 6.03 | 5.26 to 6.03 | > 6.03 | > 6.03 | > 6.03 | < 4.98
6 | COC(=O)c1cc(OC)c(OC)cc1Nc1ncnc(-n2c(N)nc3ccccc32)n1 [Compound 476] | < 4.97 | 5.08 to 5.24 |  | < 4.97 | < 4.97 | 4.97 to 5.08 | < 4.97 | 5.24 to 6.02 | < 4.97 | < 4.97 | < 4.97
7 | NC(=O)c1ccccc1Nc1ncnc(-n2c(N)nc3ccccc32)n1 [Compound 473] | < 4.89 | 4.89 to 5.00 |  | 4.89 to 5.00 | < 4.89 | 4.89 to 5.00 | < 4.89 | 5.00 to 5.16 | 4.89 to 5.00 | 5.00 to 5.16 | < 4.89
8 | COc1cc(Nc2ncnc(Nc3cc(-c4cccc(C(F)(F)F)c4)n[nH]3)n2)cc(OC)c1OC [Compound 1000] | 5.03 to 5.14 | 5.14 to 5.31 |  | < 5.03 | 5.14 to 5.31 | 5.31 to 6.09 | < 5.03 | 5.31 to 6.09 | 5.14 to 5.31 | 5.31 to 6.09 | < 5.03
9 | COc1cc(Nc2ncnc(Nc3cc(-c4ccc(C)cc4)n[nH]3)n2)cc(OC)c1OC [Compound 521] | < 4.98 | 5.26 to 6.03 |  | < 4.98 | 5.26 to 6.03 | > 6.03 | 5.26 to 6.03 | > 6.03 | > 6.03 | > 6.03 | < 4.98
